The source made the active and inactive calls. The rule behind the calls is not given here.
Assays:
[1] = system: Cysteinyl leukotriene receptor 1 (Cavia porcellus); test: Dissociation constant (Kb) against LTD4
[2] = target: T1, Cysteinyl leukotriene receptor 1 (Cavia porcellus, UniProt Q2NNR5); test: Displacement of [3H]LTD4 on guinea pig lung parenchymal membranes; type: tissue-based, Lung parenchyma
T1 sequence (Q2NNR5 whole entry): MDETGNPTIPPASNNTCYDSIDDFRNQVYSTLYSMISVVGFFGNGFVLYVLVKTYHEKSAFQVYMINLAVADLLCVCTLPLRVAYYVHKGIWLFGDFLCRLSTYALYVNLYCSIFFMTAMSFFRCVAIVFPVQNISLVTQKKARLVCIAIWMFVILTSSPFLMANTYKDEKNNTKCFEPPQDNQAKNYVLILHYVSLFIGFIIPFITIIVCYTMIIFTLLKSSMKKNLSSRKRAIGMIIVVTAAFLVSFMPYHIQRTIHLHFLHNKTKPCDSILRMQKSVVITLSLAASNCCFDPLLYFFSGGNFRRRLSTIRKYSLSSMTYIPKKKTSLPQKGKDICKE

[3] = system: Cavia porcellus; test: Effective dose of compound was measured in vivo for blocking LTD4 induced dyspnea after po administration.; type: functional
[4] = target: Cysteinyl leukotriene receptor 1 (Cavia porcellus); test: Inhibition constant for displacement of [3H]LTD4 on guinea pig lung parenchymal membranes.
[5] = species: Cavia porcellus; test: Inhibition of peptidoleukotriene LTE4 induced contraction of guinea pig tracheal spirals at the concentration of 3.3 uM.; type: functional; details: Trachea
[6] = target: T1, Cysteinyl leukotriene receptor 1; test: Inhibition constant for displacement of [3H]LTD4 on guinea pig lung parenchymal membranes.; type: tissue-based, Lung parenchyma
[7] = species: Cavia porcellus; test: Inhibition of peptidoleukotriene LTE4 induced contraction of guinea pig tracheal spirals at the concentration of 1 uM.; type: functional; details: Trachea
[8] = system: Cavia porcellus; test: Percent protection of animals against aerosolized LTD4-induced dyspnea at the concentration of 1.8 mg/kg.; type: functional
[9] = system: Cavia porcellus; test: Percent protection of animals against aerosolized LTD4-induced dyspnea at the concentration of 0.6 mg/kg; Not significant; type: functional, organism-based; set-up: dose 0.6 mg/kg
[10] = system: Cavia porcellus; test: Percent protection of animals against aerosolized LTD4-induced dyspnea at the concentration of 0.6 mg/kg.; type: functional; details: inhaled or nasal
[11] = species: Cavia porcellus; test: Inhibition of peptidoleukotriene LTE4 induced contraction of guinea pig tracheal spirals at the concentration of 100 uM.; type: functional; details: Trachea
[12] = species: Cavia porcellus; test: Inhibition of peptidoleukotriene LTE4 induced contraction of guinea pig tracheal spirals at the concentration of 3.3 uM; Not significant; type: functional; details: Trachea

SMILES | pKB [1] | Ki [4] [nM] | further results
COc1cc(C(=O)O)ccc1Cn1ccc2ccc(NC(=O)OC3CCCC3)cc21 | 7.8 |  | Ki [2]: 160 nM
COc1cc(C(=O)NS(=O)(=O)c2ccccc2)ccc1Cc1cn(C)c2ccc(NC(=O)CC3CCCC3)cc12 | 9.8 |  | Ki [2]: 0.3 nM; ED50 [3]: 1 mg/kg
COc1cc(C(=O)NS(=O)(=O)c2ccccc2Br)ccc1Cc1cn(C)c2ccc(NC(=O)CC3CCCC3)cc12 | 10.1 | 0.5 | 
CCCCCC(=O)Nc1ccc2[nH]cc(Cc3ccc(C(=O)O)cc3OC)c2c1 |  |  | inhibition at 3.3 µM [5]: 64%
COc1cc(C(=O)NS(=O)(=O)c2ccccc2)ccc1Cc1c[nH]c2ccc(NC(=O)OC3CCCC3)cc12 | 9.8 | 1.4 | 
COc1cc(C(=O)NS(=O)(=O)c2ccccc2C)ccc1Cc1nn(C)c2ccc(NC(=O)OC3CCCC3)cc12 |  | 0.3 | ED50 [3]: 0.5 mg/kg
COCCn1cc(Cc2ccc(C(=O)NS(=O)(=O)c3ccccc3)cc2OC)c2cc(NC(=O)OC3CCCC3)ccc21 | 9.39 | 0.2 | ED50 [3]: 1.1 mg/kg
COc1cc(C(=O)O)ccc1Cn1ncc2ccc(NC(=O)CC3CCCC3)cc21 |  |  | Ki [2]: 50 nM
COc1cc(C(=O)NS(=O)(=O)c2ccccc2C)ccc1Cc1cn(C)c2ccc(NC(=O)NC3CCCC3)cc12 | 9.31 |  | Ki [2]: 1.4 nM; ED50 [3]: 0.9 mg/kg
COc1cc(C(=O)NS(C)(=O)=O)ccc1Cc1cn(Cc2cccc(C#N)c2)c2ccc(NC(=O)CC3CCCC3)cc12 | 9 | 5.6 | 
COc1cc(C(=O)O)ccc1Cc1nn(C)c2ccc(NC(=O)OC3CCCC3)cc12 |  |  | Ki [2]: 160 nM
COc1cc(C(=O)O)ccc1Cc1cn(CC2CC2)c2ccc(NC(=O)OC3CCCC3)cc12 |  | 57 | 
CCCc1c(OCCCCc2nnn[nH]2)ccc(C(C)=O)c1O [TOMELUKAST] |  |  | Ki [2]: 2820 nM
COc1cc(C(=O)O)ccc1Cc1cn(Cc2cccc(C#N)c2)c2ccc(NC(=O)CC3CCCC3)cc12 | 8.55 | 10 | 
CCCn1cc(Cc2ccc(C(=O)O)cc2OC)c2cc(NC(=O)OC3CCCC3)ccc21 | 7.72 |  | Ki [6]: 58 nM
COc1cc(C(=O)NS(=O)(=O)c2ccccc2C)ccc1Cc1c[nH]c2ccc(NC(=O)CC3CCCC3)cc12 | 9.69 |  | Ki [2]: 1 nM; ED50 [3]: 1.3 mg/kg
COc1cc(C(=O)NS(=O)(=O)c2ccccc2)ccc1Cc1cn(C2CCCC2)c2ccc(NC(=O)OC3CCCC3)cc12 | 7.84 | 67 | 
CCCn1cc(Cc2ccc(C(=O)O)cc2OC)c2cc(NC(=O)CC3CCCC3)ccc21 |  | 84 | 
CCCn1cc(Cc2ccc(C(=O)NS(=O)(=O)c3ccccc3)cc2OC)c2cc(NC(=O)NC3CCCC3)ccc21 | 9.2 |  | Ki [2]: 0.5 nM
COc1cc(C(=O)NS(=O)(=O)c2ccccc2)ccc1Cc1nn(C)c2ccc(NC(=O)OC3CCCC3)cc12 |  | 0.25 | 
COc1cc(C(=O)O)ccc1Cc1cn(C)c2ccc(NC(=O)NC3CCCC3)cc12 |  |  | Ki [6]: 1120 nM
COc1cc(C(=O)NS(=O)(=O)c2ccccc2Cl)ccc1Cc1nn(C)c2ccc(NC(=O)OC3CCCC3)cc12 |  | 0.3 | ED50 [3]: 1 mg/kg
CCCCCC(=O)Nc1ccc2c(c1)c(Cc1ccc(C(=O)O)cc1OC)cn2C |  |  | inhibition at 1 µM [7]: 77%; Ki [6]: 1900 nM
COCCn1cc(Cc2ccc(C(=O)O)cc2OC)c2cc(NC(=O)OC3CCCC3)ccc21 |  |  | Ki [6]: 41 nM
COc1cc(C(=O)O)ccc1Cc1nn(C)c2ccc(NC(=O)CC3CCCC3)cc12 |  | 132 | 

SMILES | pKB [1] | Ki [4] [nM] | further results
C=CCn1cc(Cc2ccc(C(=O)O)cc2OC)c2cc(NC(=O)CCCCC)ccc21 |  |  | inhibition at 1 µM [7]: 43%
COc1cc(C(=O)NS(=O)(=O)c2ccccc2Cl)ccc1Cc1nn(C)c2ccc(NC(=O)CC3CCCCC3)cc12 |  | 0.25 | protection at 1.8 mg/kg [8]: 71%; ED50 [9]: inactive
COc1cc(C(=O)NS(=O)(=O)c2ccccc2Cl)ccc1Cc1nn(C)c2ccc(NC(=O)NC3CCC3)cc12 |  | 0.1 | ED50 [3]: 1 mg/kg
COc1cc(C(=O)NS(=O)(=O)c2ccccc2Cl)ccc1Cc1nn(C)c2ccc(NC(=O)CC3CCCC3)cc12 |  | 0.3 | protection at 0.6 mg/kg [10]: 48%
COc1cc(C(=O)NS(=O)(=O)c2ccccc2Cl)ccc1Cc1cn(C)c2ccc(NC(=O)NC3CCCC3)cc12 | 10.2 | 0.7 | 
COc1cc(C(=O)NS(=O)(=O)c2ccccc2)ccc1Cc1cn(C)c2ccc(NC(=O)NC3CCCC3)cc12 |  |  | Ki [2]: 0.8 nM; ED50 [3]: ~35 mg/kg
COc1cc(C(=O)NS(=O)(=O)c2ccccc2C)ccc1Cc1cn(C)c2ccc(NC(=O)OC3CCCC3)cc12 [ZAFIRLUKAST] |  |  | ED50 [3]: 0.3 mg/kg
COc1cc(C(=O)NS(=O)(=O)c2ccccc2C)ccc1Cc1nn(C)c2ccc(NC(=O)CC3CCCC3)cc12 |  | 0.3 | protection at 0.6 mg/kg [10]: 47%; protection at 1.8 mg/kg [8]: 100%
COc1cc(C(=O)NS(=O)(=O)c2ccccc2Cl)ccc1Cc1cn(C)c2ccc(NC(=O)CC3CCCC3)cc12 | 9.85 | 0.3 | 
COc1cc(C(=O)O)ccc1Cc1cn(C2CCCC2)c2ccc(NC(=O)OC3CCCC3)cc12 | 7.67 | 53 | 
CCCCCC(=O)Nc1ccc2c(c1)c(Cc1ccc(C(=O)O)cc1OC)cn2Cc1ccccc1 |  |  | inhibition at 1 µM [7]: 38%
CCn1cc(Cc2ccc(C(=O)O)cc2OC)c2cc(NC(=O)CC3CCCC3)ccc21 |  | 71 | 
COc1cc(C(=O)NS(=O)(=O)c2ccccc2Br)ccc1Cc1nn(C)c2ccc(NC(=O)OC3CCCC3)cc12 |  | 0.3 | ED50 [3]: 1.1 mg/kg
COc1cc(C(=O)O)ccc1Cc1cn(Cc2ccccc2)c2ccc(NC(=O)CC3CCCC3)cc12 |  | 70 | 
COc1cc(C(=O)O)ccc1Cn1ncc2ccc(NC(=O)OC3CCCC3)cc21 |  |  | Ki [2]: 80 nM
COc1cc(C(=O)NS(=O)(=O)c2ccccc2C)ccc1Cc1cn(C)c2ccc(NC(=O)CC3CCCC3)cc12 | 9.64 |  | Ki [2]: 0.5 nM; ED50 [3]: 0.2 mg/kg
CCCn1cc(Cc2ccc(C(=O)NS(=O)(=O)c3ccccc3)cc2OC)c2cc(NC(=O)OC3CCCC3)ccc21 | 8.44 |  | ED50 [3]: 1 mg/kg
COc1cc(C(=O)NS(=O)(=O)C(C)C)ccc1Cc1cn(Cc2cccc(C#N)c2)c2ccc(NC(=O)CC3CCCC3)cc12 | 9.28 | 6.8 | 
COc1cc(C(=O)O)ccc1Cc1c[nH]c2ccc(NC(=O)OC3CCCC3)cc12 | 7.32 |  | Ki [6]: 236 nM
COc1cc(C(=O)O)ccc1Cc1cn(C)c2ccc(NC(=O)OC3CCCC3)cc12 | 7.84 |  | Ki [6]: 157 nM; inhibition at 100 µM [11]: 75%
CCCCCC(=O)Nc1ccc2c(c1)c(Cc1ccc(C(=O)O)cc1OC)cn2CC(=O)O |  |  | inhibition [12]: inactive
COc1cc(C(=O)NS(=O)(=O)c2ccccc2)ccc1Cc1cn(C)c2ccc(NC(=O)OC3CCCC3)cc12 | 9.69 | 0.8 | ED50 [3]: 2.5 mg/kg
COc1cc(C(=O)O)ccc1Cn1ccc2ccc(NC(=O)CC3CCCC3)cc21 | 7.68 |  | Ki [2]: 200 nM
COc1cc(C(=O)O)ccc1Cc1cn(C)c2ccc(NC(=O)CC3CCCC3)cc12 |  |  | Ki [6]: 80 nM; inhibition at 100 µM [11]: 94%
CCCC(CC)C(=O)Nc1ccc2c(c1)c(Cc1ccc(C(=O)O)cc1OC)cn2C (stereo unspecified) |  |  | Ki [6]: 1830 nM

Source: ChEMBL document CHEMBL1124803, “Evolution of a series of peptidoleukotriene antagonists: synthesis and structure/activity relationships of 1,3,5-substituted indoles and indazoles” (J Med Chem, 1990)
